Data taken from patent US20140121216A1, “INDOLEAMINE DERIVATIVES FOR THE TREATMENT OF CENTRAL NERVOUS SYSTEM DISEASES” (Adamed Sp. z o.o., priority 2011, published 2014).

What was measured:
[1] = target: T1, 5-HT2C receptor, human recombinant (HEK-293 cells) (Homo sapiens, UniProt P28335); assay: Binding assay, 5-HT2C receptor ([3H]mesulergine); settings: for 5-HT2C [%] binding assay result: compound 1×10^−6 M
T1 construct: expressed in transfected cells; host or cells: HEK-293 cells
T1 sequence (P28335 33-458): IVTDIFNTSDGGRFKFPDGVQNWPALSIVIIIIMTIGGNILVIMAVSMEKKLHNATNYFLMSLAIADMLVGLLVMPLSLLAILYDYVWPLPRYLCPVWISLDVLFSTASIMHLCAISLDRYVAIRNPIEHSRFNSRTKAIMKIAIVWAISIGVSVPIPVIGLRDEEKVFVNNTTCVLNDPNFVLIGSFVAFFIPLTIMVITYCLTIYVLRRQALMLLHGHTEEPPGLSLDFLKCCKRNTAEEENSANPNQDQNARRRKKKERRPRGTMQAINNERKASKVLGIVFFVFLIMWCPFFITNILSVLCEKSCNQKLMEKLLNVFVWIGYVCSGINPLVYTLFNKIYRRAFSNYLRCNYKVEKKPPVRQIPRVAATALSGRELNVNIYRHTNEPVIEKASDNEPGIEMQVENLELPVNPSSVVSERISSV
Procedure: Moreover, ability of the compounds of the invention to block potassium channel hERG was tested.
(§1) The specific ligand binding to the receptors is defined as the difference between the total binding and the non-specific binding determined in the presence of an excess of unlabelled ligand.
(§2) The inhibition constants (Ki) were calculated using the Cheng Prusoff equation (Ki=IC50/(1+(L/KD)), where L=concentration of radioligand in the assay, and KD=affinity of the radioligand for the receptor). A Scatchard plot is used to determine the Kd. The IC50 values (concentration causing a half-maximal inhibition of control specific binding) and Hill coefficients (nH) were determined by non-linear regression analysis of the competition curves generated with mean replicate values using Hill equation curve fitting (Y=D+[(A−D)/(1+(C/C50)^nH)], where Y=specific binding, D=minimum specific binding, A=maximum specific binding, C=compound concentration, C50=IC50, and nH=slope factor).

[2] = test system: α1 adrenergic receptors (rat cerebral cortex); assay: Binding assay, α1 adrenergic receptor ([3H]prazosin); settings: for α1 [%] affinity test result: compound 1×10^−6 M; for Ki: read-out: Inhibition constant Ki α1
Procedure: as §1
as §2, with “factor). This analysis was performed using a software developed at Cerep (Hill software) and validated by comparison with data generated by the commercial software SigmaPlot® 4.0 for Windows® (©1997 by SPSS Inc.).” for “factor).”
Experimental conditions for tests are given in Table 7, and results of tests for representative compounds are given in Tables 8a and 8b (α1 receptors) and in Tables 9a and 9b (α2C receptors).

[3] = target: T2, D2S (h), human recombinant (HEK-293 cells) (Homo sapiens, UniProt P14416); assay: Cellular functional assay D2S (h) agonism; assay type: cell-based; settings: HEK293; compound 1×10^−6 M; control 3 μM dopamine; read-out: D2-ag [%]
T2 construct: expressed in transfected cells; host or cells: HEK-293 cells
Procedure: (§3) The results are expressed as a percent of control specific agonist response ((measured specific response/control specific agonist response)×100) obtained in the presence of tested compound.
(§4) The EC50 values (concentration producing a half-maximal specific response) and IC50 values (concentration causing a half-maximal inhibition of the control specific agonist response) were determined by non-linear regression analysis of the concentration-response curves generated with mean replicate values using Hill equation curve fitting (Y=D+[(A−D)/(1+(C/C50)nH)], where Y=specific response, D=minimum specific response, A=maximum specific response, C=compound concentration, and C50=EC50 or IC50, and nH=slope factor).
(§5) For the antagonists, the apparent dissociation constants (Kb) were calculated using the modified Cheng Prusoff equation (Kb=IC50/(1+(A/EC50A)), where A=concentration of reference agonist in the assay, and EC50A=EC50 value of the reference agonist).

[4] = target: T3, D3 (h), human recombinant (CHO cells) (Homo sapiens, UniProt P35462); assay: Cellular functional assay D3 (h) agonism; assay type: cell-based; settings: compound 1×10^−6 M; control 0.3 μM dopamine
T3 construct: expressed in transfected cells; host or cells: CHO cells
Procedure: as §3, §4, §5

[5] = target: T4, 5-HT1A (h), human recombinant (CHO cells) (Homo sapiens, UniProt P08908); assay: Cellular functional assay 5-HT1A (h) antagonism; assay type: cell-based; settings: compound 1×10^−6 M; stimulus 8-OH-DPAT 10 nM
T4 construct: expressed in transfected cells; host or cells: CHO cells
T4 sequence (P08908 1-422): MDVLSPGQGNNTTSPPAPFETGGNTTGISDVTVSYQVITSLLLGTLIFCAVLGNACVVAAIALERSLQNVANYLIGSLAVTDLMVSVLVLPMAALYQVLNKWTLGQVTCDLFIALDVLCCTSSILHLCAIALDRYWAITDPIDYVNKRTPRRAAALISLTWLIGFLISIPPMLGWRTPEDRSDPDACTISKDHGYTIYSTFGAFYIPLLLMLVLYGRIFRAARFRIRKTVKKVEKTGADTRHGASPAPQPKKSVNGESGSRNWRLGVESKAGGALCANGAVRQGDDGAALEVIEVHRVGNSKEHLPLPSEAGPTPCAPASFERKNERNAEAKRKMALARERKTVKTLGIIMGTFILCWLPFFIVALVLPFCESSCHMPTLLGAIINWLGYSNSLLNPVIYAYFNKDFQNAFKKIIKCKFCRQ
Procedure: as §3, §4, §5

[6] = target: T5, 5-HT2A (h), human recombinant (HEK-293 cells) (Homo sapiens, UniProt P28223); assay: Cellular functional assay 5-HT2A (h) antagonism; assay type: cell-based; settings: compound 1×10^−6 M; stimulus serotonin 100 nM
T5 construct: expressed in transfected cells; host or cells: HEK-293 cells
Procedure: as §3, §4, §5

[7] = target: T6, 5-HT6 (h), human recombinant (CHO cells) (Homo sapiens, UniProt P50406); assay: Cellular functional assay 5-HT6 (h) agonism; assay type: cell-based; settings: compound 1×10^−6 M, control 10 μM serotonin, read-out: 5-HT6-ag [%]
T6 construct: expressed in transfected cells; host or cells: CHO cells
Procedure: as §3, §4, §5

T5 sequence (P28223 whole entry): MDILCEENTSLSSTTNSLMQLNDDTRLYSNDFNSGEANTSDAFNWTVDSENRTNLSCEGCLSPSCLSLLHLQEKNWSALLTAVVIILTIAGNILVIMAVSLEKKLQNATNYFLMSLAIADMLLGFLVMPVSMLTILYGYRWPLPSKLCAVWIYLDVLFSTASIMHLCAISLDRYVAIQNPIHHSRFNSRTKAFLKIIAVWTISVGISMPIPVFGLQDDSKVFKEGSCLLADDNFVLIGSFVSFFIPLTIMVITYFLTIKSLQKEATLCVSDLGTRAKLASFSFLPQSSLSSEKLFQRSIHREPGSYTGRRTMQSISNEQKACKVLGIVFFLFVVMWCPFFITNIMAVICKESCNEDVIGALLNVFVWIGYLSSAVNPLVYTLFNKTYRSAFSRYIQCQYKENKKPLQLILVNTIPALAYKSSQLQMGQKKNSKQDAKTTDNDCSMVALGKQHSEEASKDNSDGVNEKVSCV
T2 sequence (P14416 1-414 isoform P14416-2): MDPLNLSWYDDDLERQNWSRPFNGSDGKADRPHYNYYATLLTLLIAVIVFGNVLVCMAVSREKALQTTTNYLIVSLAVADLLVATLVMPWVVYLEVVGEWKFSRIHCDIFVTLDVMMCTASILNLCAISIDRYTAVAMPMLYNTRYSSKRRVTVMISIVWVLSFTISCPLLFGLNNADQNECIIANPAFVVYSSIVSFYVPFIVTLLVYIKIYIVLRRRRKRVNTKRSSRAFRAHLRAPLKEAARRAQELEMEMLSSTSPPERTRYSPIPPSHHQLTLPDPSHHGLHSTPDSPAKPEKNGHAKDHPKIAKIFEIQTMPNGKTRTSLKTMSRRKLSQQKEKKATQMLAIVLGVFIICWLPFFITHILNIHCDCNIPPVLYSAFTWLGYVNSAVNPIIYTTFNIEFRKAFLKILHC
T3 sequence (P35462 whole entry): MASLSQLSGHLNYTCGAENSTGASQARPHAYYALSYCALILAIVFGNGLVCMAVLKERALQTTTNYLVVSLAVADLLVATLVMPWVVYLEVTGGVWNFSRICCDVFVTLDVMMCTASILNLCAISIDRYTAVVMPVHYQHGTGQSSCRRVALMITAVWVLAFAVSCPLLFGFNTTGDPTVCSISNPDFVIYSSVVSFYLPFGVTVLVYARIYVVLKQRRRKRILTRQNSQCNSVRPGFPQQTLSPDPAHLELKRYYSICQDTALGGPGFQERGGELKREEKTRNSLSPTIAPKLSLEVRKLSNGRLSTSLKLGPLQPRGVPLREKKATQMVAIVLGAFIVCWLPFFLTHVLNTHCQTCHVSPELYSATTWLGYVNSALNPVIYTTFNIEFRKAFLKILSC
T6 sequence (P50406 whole entry): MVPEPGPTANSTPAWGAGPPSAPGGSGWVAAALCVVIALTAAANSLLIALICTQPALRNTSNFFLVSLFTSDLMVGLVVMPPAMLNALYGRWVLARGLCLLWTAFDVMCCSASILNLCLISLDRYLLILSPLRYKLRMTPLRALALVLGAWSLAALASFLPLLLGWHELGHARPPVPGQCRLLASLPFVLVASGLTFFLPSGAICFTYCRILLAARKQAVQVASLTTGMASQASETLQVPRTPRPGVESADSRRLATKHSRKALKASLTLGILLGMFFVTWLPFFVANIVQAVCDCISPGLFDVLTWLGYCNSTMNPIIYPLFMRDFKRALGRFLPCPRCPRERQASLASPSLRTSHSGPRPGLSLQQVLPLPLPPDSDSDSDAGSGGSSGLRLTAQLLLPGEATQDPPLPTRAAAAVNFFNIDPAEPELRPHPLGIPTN

## O=C1CCc2ccc(OCCCN3CCN(c4cccc5c4ccn5Cc4ccccc4)CC3)cc2N1 [Compound 4, 7-[3-[4-(1-Benzylindol-4-yl)piperazin-1-yl]propoxy]-3,4-dihydro-1H-quinolin-2-one]
[1]
  5-HT2C [%] binding assay result: 73%
[2]
  α1 [%] affinity test result: 68%
[3]
  activation at 1 µM: 45%
[4]
  D3-ag [%]: 22%
[5]
  5-HT1A-antag [%]: 17%
[6]
  5-HT2A-antag [%]: 17%
[7]
  activation at 1 µM: 0%

## O=C1CCc2ccc(OCCCCN3CCN(c4cccc5c4ccn5Cc4ccccc4)CC3)cc2N1 [Compound 5, 7-(4-(4-(1-Benzyl-1H-indol-4-yl)piperazin-1-yl)butoxy)-3,4-dihydroquinolin-2(1H)-one]
[1]
  5-HT2C [%] binding assay result: 86%
[2]
  α1 [%] affinity test result: 88%
[3]
  activation at 1 µM: 47%
[4]
  D3-ag [%]: 22%
[5]
  5-HT1A-antag [%]: 31%
[6]
  5-HT2A-antag [%]: 66%
[7]
  activation at 1 µM: -1%

## O=C1CCc2ccc(OCCCN3CCN(c4cccc5c4ccn5S(=O)(=O)c4ccccc4)CC3)cc2N1 [Compound 23, 7-[3-[4-[1-(Benzensulphonyl)indol-4-yl]piperazin-1-yl]propoxy]-3,4-dihydro-1H-quinolin-2-one]
[1]
  5-HT2C [%] binding assay result: 0%
[2]
  α1 [%] affinity test result: 55%
  Ki: 290 nM
[3]
  activation at 1 µM: 40%
[4]
  D3-ag [%]: 65%
[5]
  5-HT1A-antag [%]: 20%
[7]
  activation at 1 µM: 2%

## O=C1CCc2ccc(OCCCCN3CCN(c4cccc5c4ccn5S(=O)(=O)c4ccccc4)CC3)cc2N1 [Compound 24, 7-(4-(4-(1-(Phenylsulphonyl)-1H-indol-4-yl)piperazin-1-yl)butoxy)-3,4-dihydroquinolin-2(1H)-one]
[1]
  5-HT2C [%] binding assay result: 48%
[1]; read-out: Inhibition constant Ki 5-HT2C
  Ki: 610 nM
[2]
  α1 [%] affinity test result: 92%
  Ki: 22 nM
[3]
  activation at 1 µM: 47%
[4]
  D3-ag [%]: 13%
[5]
  5-HT1A-antag [%]: 0%
[6]
  5-HT2A-antag [%]: 34.2%
[7]
  activation at 1 µM: 0%

## O=C1CCc2ccc(OCCCCN3CCN(c4cccc5c4ccn5Cc4cccc(F)c4)CC3)cc2N1 [Compound 63, 7-[4-[4-[1-[(3-Fluorophenyl)methyl]indol-4-yl]piperazin-1-yl]butoxy]-3,4-dihydro-1H-quinolin-2-one]
[1]
  5-HT2C [%] binding assay result: 89%
[2]
  α1 [%] affinity test result: 86%
[3]
  activation at 1 µM: 47%
[4]
  D3-ag [%]: 20%
[5]
  5-HT1A-antag [%]: 73%
[6]
  5-HT2A-antag [%]: 63%
[7]
  activation at 1 µM: -1%

## O=C1CCc2ccc(OCCCCN3CCN(c4cccc5c4ccn5Cc4cccc(Cl)c4)CC3)cc2N1 [Compound 67, 7-[4-[4-[1-[(3-Chlorophenyl)methyl]indol-4-yl]piperazin-1-yl]butoxy]-3,4-dihydro-1H-quinolin-2-one]
[1]
  5-HT2C [%] binding assay result: 76%
[3]
  activation at 1 µM: 46%
[4]
  D3-ag [%]: 11%
[5]
  5-HT1A-antag [%]: 56%
[6]
  5-HT2A-antag [%]: 34%
[7]
  activation at 1 µM: 0%

## NC(=O)c1ccccc1OCCCN1CCN(c2cccc3c2ccn3S(=O)(=O)c2ccccc2)CC1 [Compound 72, 2-[3-[4-[1-(Benzenesulfonyl)indol-4-yl]piperazin-1-yl]propoxy]-benzamide]
[1]
  5-HT2C [%] binding assay result: 35%
[3]
  activation at 1 µM: 34%
[4]
  D3-ag [%]: 34%
[5]
  5-HT1A-antag [%]: 61%
[6]
  5-HT2A-antag [%]: 45%
[7]
  activation at 1 µM: -2%
